# Measurements as given in ChEMBL document CHEMBL1133211, “Synthesis of feruloyl-myo-inositols and their inhibitory effects on superoxide generation” (2000).
# Test system: HL-60
# Assay: Inhibitory activity against TPA-induced superoxide (O2-) generation in human promyelocytic leukemia HL-60 cells, at 100 uM concentration
# Assay type: functional
row,SMILES,inhibition at 100 µM [%]
1,COc1cc(/C=C/C(=O)O[C@H]2[C@@H](O)[C@@H](O)[C@H](OC(=O)/C=C/c3ccc(OC(C)=O)c(OC)c3)[C@@H](O)[C@@H]2O)ccc1OC(C)=O,~20
2,COc1cc(/C=C/C(=O)O[C@H]2[C@@H](O)[C@@H](O)[C@H](OC(=O)/C=C/c3ccc(O)c(OC)c3)[C@@H](O)[C@@H]2O)ccc1O,~5
3,COc1cc(/C=C/C(=O)O[C@@H]2[C@H](O)[C@@H](O)[C@H](O)[C@@H](O)[C@@H]2OC(=O)/C=C/c2ccc(O)c(OC)c2)ccc1O,~20
4,COc1cc(/C=C/C(=O)O[C@@H]2[C@H]3OC4(CCCCC4)O[C@@H]3[C@@H](OC(=O)/C=C/c3ccc(OC(C)=O)c(OC)c3)[C@@H]3OC4(CCCCC4)O[C@H]23)ccc1OC(C)=O,~25
5,COC(=O)/C=C/c1ccc(O)c(OC)c1,~2
6,COc1cc(/C=C/C(=O)O[C@@H]2[C@H](O)[C@H](OC(C)=O)[C@@H](OC(C)=O)[C@H](OC(C)=O)[C@H]2OC(C)=O)ccc1OC(C)=O,~5
7,COc1cc(/C=C/C(=O)O[C@@H]2[C@H]3OC4(CCCCC4)O[C@@H]3[C@@H](OC(=O)/C=C/c3ccc(O)c(OC)c3)[C@@H]3OC4(CCCCC4)O[C@H]23)ccc1O,~30
8,COc1cc(/C=C/C(=O)O)ccc1OC(C)=O,~2
9,COc1cc(/C=C/C(=O)O[C@@H]2[C@H](OC(C)=O)[C@@H](OC(C)=O)[C@H](OC(C)=O)[C@@H](OC(C)=O)[C@@H]2OC(=O)/C=C/c2ccc(OC(C)=O)c(OC)c2)ccc1OC(C)=O,~100
10,CCOC(=O)/C=C/c1ccc(O)c(OC)c1 [ETHYL FERULATE],~9
11,COc1cc(/C=C/C(=O)O)ccc1O [FERULATE],~12

# Test system: HL-60
# Assay: Cell viability in TPA-induced superoxide (O2-) generation in human promyelocytic leukemia HL-60 cells, at 100 uM concentration
# Assay type: functional
row,SMILES,Cell viability [%]
1,COc1cc(/C=C/C(=O)O[C@H]2[C@@H](O)[C@@H](O)[C@H](OC(=O)/C=C/c3ccc(OC(C)=O)c(OC)c3)[C@@H](O)[C@@H]2O)ccc1OC(C)=O,~72
2,COc1cc(/C=C/C(=O)O[C@H]2[C@@H](O)[C@@H](O)[C@H](OC(=O)/C=C/c3ccc(O)c(OC)c3)[C@@H](O)[C@@H]2O)ccc1O,~80
3,COc1cc(/C=C/C(=O)O[C@@H]2[C@H](O)[C@@H](O)[C@H](O)[C@@H](O)[C@@H]2OC(=O)/C=C/c2ccc(O)c(OC)c2)ccc1O,~80
4,COc1cc(/C=C/C(=O)O[C@@H]2[C@H]3OC4(CCCCC4)O[C@@H]3[C@@H](OC(=O)/C=C/c3ccc(OC(C)=O)c(OC)c3)[C@@H]3OC4(CCCCC4)O[C@H]23)ccc1OC(C)=O,~60
5,COC(=O)/C=C/c1ccc(O)c(OC)c1,~80
6,COc1cc(/C=C/C(=O)O[C@@H]2[C@H](O)[C@H](OC(C)=O)[C@@H](OC(C)=O)[C@H](OC(C)=O)[C@H]2OC(C)=O)ccc1OC(C)=O,~45
7,COc1cc(/C=C/C(=O)O[C@@H]2[C@H]3OC4(CCCCC4)O[C@@H]3[C@@H](OC(=O)/C=C/c3ccc(O)c(OC)c3)[C@@H]3OC4(CCCCC4)O[C@H]23)ccc1O,~60
8,COc1cc(/C=C/C(=O)O)ccc1OC(C)=O,~82
9,COc1cc(/C=C/C(=O)O[C@@H]2[C@H](OC(C)=O)[C@@H](OC(C)=O)[C@H](OC(C)=O)[C@@H](OC(C)=O)[C@@H]2OC(=O)/C=C/c2ccc(OC(C)=O)c(OC)c2)ccc1OC(C)=O,~60
10,CCOC(=O)/C=C/c1ccc(O)c(OC)c1 [ETHYL FERULATE],~80
11,COc1cc(/C=C/C(=O)O)ccc1O [FERULATE],~80
